The target of this series is ATP-dependent translocase ABCB1 (Rattus norvegicus, UniProt P43245). Nature of the series: TP_TRANSPORTER: RNase protection assay in vitro, rat hepatoma H-4-II-E cells. The class given is functional, cell-based.
Sequence of ATP-dependent translocase ABCB1 (P43245 whole entry): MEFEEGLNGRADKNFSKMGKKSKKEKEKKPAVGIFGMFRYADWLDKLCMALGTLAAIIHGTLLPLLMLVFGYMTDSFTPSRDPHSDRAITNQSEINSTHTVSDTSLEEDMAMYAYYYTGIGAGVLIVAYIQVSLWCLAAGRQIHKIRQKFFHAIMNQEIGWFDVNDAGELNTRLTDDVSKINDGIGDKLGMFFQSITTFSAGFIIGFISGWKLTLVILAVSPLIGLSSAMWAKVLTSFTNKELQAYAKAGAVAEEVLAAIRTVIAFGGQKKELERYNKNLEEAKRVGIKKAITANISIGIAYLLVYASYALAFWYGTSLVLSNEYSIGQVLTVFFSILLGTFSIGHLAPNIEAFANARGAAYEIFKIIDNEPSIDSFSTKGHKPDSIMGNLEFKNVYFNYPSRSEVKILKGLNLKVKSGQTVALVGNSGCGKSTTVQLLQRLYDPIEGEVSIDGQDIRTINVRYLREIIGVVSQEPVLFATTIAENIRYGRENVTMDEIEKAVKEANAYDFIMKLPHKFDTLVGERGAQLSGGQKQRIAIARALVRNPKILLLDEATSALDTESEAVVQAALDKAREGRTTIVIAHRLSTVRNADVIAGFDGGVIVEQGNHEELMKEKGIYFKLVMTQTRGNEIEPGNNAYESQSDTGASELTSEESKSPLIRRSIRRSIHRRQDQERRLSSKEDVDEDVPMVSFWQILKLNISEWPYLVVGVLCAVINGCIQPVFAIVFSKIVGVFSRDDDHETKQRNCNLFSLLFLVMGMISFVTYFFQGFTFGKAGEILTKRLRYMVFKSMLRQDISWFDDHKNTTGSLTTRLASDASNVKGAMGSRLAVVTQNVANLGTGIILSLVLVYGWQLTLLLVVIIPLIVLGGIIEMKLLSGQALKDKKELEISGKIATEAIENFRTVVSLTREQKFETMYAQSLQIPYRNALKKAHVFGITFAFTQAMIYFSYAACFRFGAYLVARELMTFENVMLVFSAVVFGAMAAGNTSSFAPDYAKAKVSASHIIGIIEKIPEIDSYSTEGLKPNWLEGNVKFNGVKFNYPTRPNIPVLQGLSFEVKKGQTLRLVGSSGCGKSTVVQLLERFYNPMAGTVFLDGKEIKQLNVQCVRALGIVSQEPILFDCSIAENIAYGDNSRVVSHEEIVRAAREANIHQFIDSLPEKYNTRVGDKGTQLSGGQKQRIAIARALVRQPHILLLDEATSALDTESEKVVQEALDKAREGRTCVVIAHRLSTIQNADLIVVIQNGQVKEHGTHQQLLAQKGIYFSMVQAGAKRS

As to `COc1cccc2c1C(=O)c1c(O)c3c(c(O)c1C2=O)C[C@@](O)(C(C)=O)C[C@@H]3O[C@H]1C[C@H](N)[C@H](O)[C@H](C)O1` [DAUNORUBICIN], the Activity result is “inducer [+]”.

For the origin of these results see ChEMBL document CHEMBL2073882, “Wild-type p53-mediated induction of rat mdr1b expression by the anticancer drug daunorubicin” (J Biol Chem, 1998).
